# Key:
# [1] = target: T1, PPARγ (Homo sapiens, UniProt P37231); assay: X-ray co-crystal structure at […] Å; fluorescence polarization competition binding with GST-tagged LBD
# T1 construct: gene PPARG
# T1 sequence (P37231 223-505): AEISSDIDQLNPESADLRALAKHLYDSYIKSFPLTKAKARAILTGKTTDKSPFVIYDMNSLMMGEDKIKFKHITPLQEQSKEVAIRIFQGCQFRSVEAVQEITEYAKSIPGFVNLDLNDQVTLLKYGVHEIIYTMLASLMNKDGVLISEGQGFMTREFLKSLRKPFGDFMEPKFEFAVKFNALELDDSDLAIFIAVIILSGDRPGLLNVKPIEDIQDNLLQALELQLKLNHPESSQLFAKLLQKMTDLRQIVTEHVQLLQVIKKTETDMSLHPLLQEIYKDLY
# [2] = target: T2, PPARγ (Homo sapiens, UniProt P37231); assay: 3xPPRE luciferase reporter in HEK293 cells, antagonism of Rosi activation; format: cell-based
# T2 construct: gene PPARG; human PPARγ2 expressed in HEK-293 cells
# T2 sequence (P37231 1-505): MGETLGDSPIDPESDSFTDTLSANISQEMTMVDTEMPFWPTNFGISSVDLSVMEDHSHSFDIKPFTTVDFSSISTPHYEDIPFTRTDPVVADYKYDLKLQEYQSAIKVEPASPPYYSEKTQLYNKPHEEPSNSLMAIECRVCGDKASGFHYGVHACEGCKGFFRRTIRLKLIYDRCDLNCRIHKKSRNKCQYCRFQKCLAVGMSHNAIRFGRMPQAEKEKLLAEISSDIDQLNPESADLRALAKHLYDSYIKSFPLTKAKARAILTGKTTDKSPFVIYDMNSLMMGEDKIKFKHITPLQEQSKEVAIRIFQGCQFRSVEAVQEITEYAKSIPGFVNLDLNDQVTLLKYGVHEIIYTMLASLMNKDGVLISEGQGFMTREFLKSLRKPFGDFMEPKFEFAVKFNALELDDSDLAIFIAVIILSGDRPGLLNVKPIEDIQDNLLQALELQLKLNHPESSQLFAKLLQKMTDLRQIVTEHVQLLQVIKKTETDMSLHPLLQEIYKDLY
IC50 [1],SMILES,"3xPPRE luciferase reporter in HEK293 cells, antagonism of Rosi activation [2]"
~5 µM,"N#Cc1c(C2CCCCC2)nc(Sc2ccc(C(F)(F)F)cc2[N+](=O)[O-])[nH]c1=O [TPMD, 4-cyclohexyl-2-((2-nitro-4-(trifluoromethyl)phenyl)thio)-6-oxo-1,6-dihydropyrimidine-5-carbonitrile]",–
–,"O=C(Nc1ccccc1)c1cc([N+](=O)[O-])ccc1Cl [GW, GW9662]",GW9662 significantly diminished the activation of 3xPPRE reporter by Rosi

# From article doi:10.64898/2025.12.15.694265, “Small molecule inhibitor of PPARγ acetylation promotes insulin sensitization and browning of white adipose tissue with improved safety” (bioRxiv, 2025)
